Drawing on patent US12528802B2, “Heterocyclic compound” (Takeda Pharmaceutical Company Limited, priority 2019, dated 2026), this text covers inhibition for 21 molecules.

Each structure is given as a SMILES string.

The assay has as its target T1, glucosylceramide synthase (Homo sapiens, UniProt Q16739).
T1 construct: made in house; host or cells: Expi293F cells (transient expression, pcDNA3.3-TOPO vector); microsome fraction used as enzyme source
T1 sequence (Q16739 1-394): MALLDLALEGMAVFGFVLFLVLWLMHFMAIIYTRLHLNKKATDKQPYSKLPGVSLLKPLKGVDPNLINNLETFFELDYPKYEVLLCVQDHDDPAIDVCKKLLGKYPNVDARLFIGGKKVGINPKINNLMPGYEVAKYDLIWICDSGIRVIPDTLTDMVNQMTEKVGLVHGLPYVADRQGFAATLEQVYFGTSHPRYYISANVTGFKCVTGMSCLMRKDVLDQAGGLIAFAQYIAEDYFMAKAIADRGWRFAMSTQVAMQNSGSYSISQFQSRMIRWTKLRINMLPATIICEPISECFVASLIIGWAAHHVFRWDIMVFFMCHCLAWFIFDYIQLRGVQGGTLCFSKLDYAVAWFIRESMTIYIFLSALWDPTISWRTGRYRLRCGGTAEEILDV
As to the kind of experiment: Glucosylceramide synthase (GCS) enzyme assay, microsome fraction, C8 glucosylceramide quantified by Rapidfire MS/MS. The class given is biochemical. To be noted: test compound 10 μM; 1.7 μM UDP-glucose, 3 μM C8 ceramide; room temperature 60 min; read-out: GCS enzyme inhibitory rate at 10 μM (%) (% of control). An outline of the steps:
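Test compound, 10 μM final, was run against human GCS from transfected Expi293F microsome fractions, using substrate solution of 6 μM C8 ceramide (in DOPC liposomes) plus 3.4 μM UDP-glucose, pH 7.5 Tris buffer, 60 min, room temperature. Product C8 glucosylceramide measured by Rapidfire MS/MS against an internal standard, % inhibition referenced to no-enzyme and DMSO wells.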
On to `CC(C)(O)c1ccc(N2Cc3c(ccnc3-c3ccc(F)cc3OCC(F)F)C2=O)cc1F` [Example 274, 4-[2-(2,2-difluoroethoxy)-4-fluorophenyl]-2-[3-fluoro-4-(2-hydroxypropan-2-yl)phenyl]-2,3-dihydro-1H-pyrrolo[3,4-c]pyridin-1-one], for which the inhibition at 10 µM was 97%.

Turning to `CC(C)(O)c1ccc(N2Cc3c(ccnc3-c3ccncc3OCC(F)(F)F)C2=O)nc1` [Example 275, 2-[5-(2-hydroxypropan-2-yl)pyridin-2-yl]-4-[3-(2,2,2-trifluoroethoxy)pyridin-4-yl]-2,3-dihydro-1H-pyrrolo [3,4-c]pyridin-1-one], the inhibition at 10 µM amounted to 94%.

In the case of `CC(C)(O)C(F)(F)c1ccc(N2Cc3c(ccnc3-c3ccncc3OCC(F)(F)F)C2=O)cc1` [Example 283, 2-[4-(1,1-difluoro-2-hydroxy-2-methylpropyl)phenyl]-4-[3-(2,2,2-trifluoroethoxy)pyridin-4-yl]-2,3-dihydro-1H-pyrrolo[3,4-c] pyridin-1-one], the inhibition at 10 µM amounted to 94%.

As to `O=C1c2ccnc(-c3ccncc3OCC(F)(F)F)c2CN1c1ccc(C(O)(C(F)F)C(F)F)cc1` [Example 284, 2-[4-(1,1,3,3-tetrafluoro-2-hydroxypropan-2-yl)phenyl]-4-[3-(2,2,2-trifluoroethoxy)pyridin-4-yl]-2,3-dihydro-1H-pyrrolo[3,4-c] pyridin-1-one], the inhibition at 10 µM is 99%.

On to `O=C1c2ccnc(-c3ccncc3OCC(F)(F)F)c2CN1c1ccc(C2(O)CC(F)(F)C2)c(F)c1` [Example 287, 2-[4-(3,3-difluoro-1-hydroxycyclobutyl)-3-fluorophenyl]-4-[3-(2,2,2-trifluoroethoxy)pyridin-4-yl]-2,3-dihydro-1H-pyrrolo[3,4-c] pyridin-1-one], for which the inhibition at 10 µM was determined as 99%.

On to `CC(C)(O)c1ccc(N2Cc3c(ccnc3-c3ccccc3OCC(F)F)C2=O)nc1` [Example 288, 4-[2-(2,2-difluoroethoxy)phenyl]-2-[5-(2-hydroxypropan-2-yl)pyridin-2-yl]-2,3-dihydro-1H-pyrrolo [3,4-c]pyridin-1-one], for which the inhibition at 10 µM was found to be 99%.

For the molecule `CC(C)(O)c1ccc(N2Cc3c(ccnc3-c3ccc(F)cc3OCC(F)F)C2=O)nc1` [Example 289, 4-[2-(2,2-difluoroethoxy)-4-fluorophenyl]-2-[5-(2-hydroxypropan-2-yl)pyridin-2-yl]-2,3-dihydro-1H-pyrrolo [3,4-c]pyridin-1-one], the inhibition at 10 µM stood at 98%.

In the case of `O=C1c2ccnc(-c3ccccc3OCC(F)F)c2CN1c1ccc(C2(O)CCC2)cc1` [Example 290, 4-[2-(2,2-difluoroethoxy)phenyl]-2-[4-(1-hydroxycyclobutyl)phenyl]-2,3-dihydro-1H-pyrrolo[3,4-c] pyridin-1-one], the inhibition at 10 µM came to 100%.

Consider `CC(C)(O)C(F)(F)c1ccc(N2Cc3c(ccnc3-c3ccc(F)cc3OCC(F)(F)F)C2=O)cn1` [Example 291, 2-[6-(1,1-difluoro-2-hydroxy-2-methylpropyl)pyridin-3-yl]-4-[4-fluoro-2-(2,2,2-trifluoroethoxy)phenyl]-2,3-dihydro-1H-pyrrolo[3,4-c]pyridin-1-one], for which the inhibition at 10 µM amounted to 79%.

`O=C1c2ccnc(-c3ccncc3OCC(F)(F)F)c2CN1c1ccc(C2(F)COC2)cc1` [Example 294, 2-[4-(3-fluorooxetan-3-yl)phenyl]-4-[3-(2,2,2-trifluoroethoxy)pyridin-4-yl]-2,3-dihydro-1H-pyrrolo [3,4-c]pyridin-1-one]: the inhibition at 10 µM is 99%.

Take `CC(C)(O)COc1ccc(N2Cc3c(ccnc3-c3ccccc3OCC(F)(F)F)C2=O)nc1` [Example 297, 2-[5-(2-hydroxy-2-methylpropoxy)pyridin-2-yl]-4-[2-(2,2,2-trifluoroethoxy)phenyl]-2,3-dihydro-1H-pyrrolo[3,4-c]pyridin-1-one]: the inhibition at 10 µM was 100%.

Take `CC(C)(O)COc1cnc(N2Cc3c(ccnc3-c3ccccc3OCC(F)(F)F)C2=O)cn1` [Example 298, 2-[5-(2-hydroxy-2-methylpropoxy)pyrazin-2-yl]-4-[2-(2,2,2-trifluoroethoxy)phenyl]-2,3-dihydro-1H-pyrrolo[3,4-c]pyridin-1-one]: the inhibition at 10 µM amounted to 98%.

As for `CC(C)(O)COc1cnc(N2Cc3c(ccnc3-c3ccc(F)cc3OCC(F)(F)F)C2=O)cn1` [Example 299, 4-[4-fluoro-2-(2,2,2-trifluoroethoxy)phenyl]-2-[5-(2-hydroxy-2-methylpropoxy)pyrazin-2-yl]-2,3-dihydro-1H-pyrrolo [3,4-c]pyridin-1-one], the inhibition at 10 µM came to 97%.

`N#CC1(c2ccc(N3Cc4c(ccnc4-c4ccc(F)cc4OCC(F)F)C3=O)cc2)CC1` [Example 302, 1-(4-{4-[2-(2,2-difluoroethoxy)-4-fluorophenyl]-1-oxo-1,3-dihydro-2H-pyrrolo[3,4-c]pyridin-2-yl}phenyl) cyclopropane-1-carbonitrile]: the inhibition at 10 µM is 92%.

Take `CC(C)(C#N)c1ccc(N2Cc3c(ccnc3-c3ccc(F)cc3OCC(F)F)C2=O)cc1` [Example 303, 2-(4-{4-[2-(2,2-difluoroethoxy)-4-fluorophenyl]-1-oxo-1,3-dihydro-2H-pyrrolo[3,4-c]pyridin-2-yl}phenyl)-2-methylpropanenitrile]: the inhibition at 10 µM came out at 100%.

As to `N#CC1(c2ccc(N3Cc4c(ccnc4-c4ccccc4OCC(F)F)C3=O)cc2)CC1` [Example 304, 1-(4-{4-[2-(2,2-difluoroethoxy)phenyl]-1-oxo-1,3-dihydro-2H-pyrrolo[3,4-c]pyridin-2-yl}phenyl) cyclopropane-1-carbonitrile], the inhibition at 10 µM worked out at 99%.

For `CC(C)(O)Cc1ccc(N2Cc3c(ccnc3-c3ccc(F)cc3OCC(F)(F)F)C2=O)cc1` [Example 305, 4-[4-fluoro-2-(2,2,2-trifluoroethoxy)phenyl]-2-[4-(2-hydroxy-2-methylpropyl)phenyl]-2,3-dihydro-1H-pyrrolo[3,4-c]pyridin-1-one], the inhibition at 10 µM came to 99%.

Consider `CC(C)(O)COc1ccc(N2Cc3c(ccnc3-c3ccccc3OCC(F)F)C2=O)nc1` [Example 306, 4-[2-(2,2-difluoroethoxy)phenyl]-2-[5-(2-hydroxy-2-methylpropoxy)pyridin-2-yl]-2,3-dihydro-1H-pyrrolo [3,4-c]pyridin-1-one], for which the inhibition at 10 µM came out at 99%.

With `CC(C)(O)Cc1ccc(N2Cc3c(ccnc3-c3ccncc3OCC(F)(F)F)C2=O)cc1` [Example 307, 2-[4-(2-hydroxy-2-methylpropyl)phenyl]-4-[3-(2,2,2-trifluoroethoxy)pyridin-4-yl]-2,3-dihydro-1H-pyrrolo [3,4-c]pyridin-1-one], the inhibition at 10 µM is 91%.

In the case of `Cn1nc(N2Cc3c(ccnc3-c3ccc(F)cc3OCC(F)(F)F)C2=O)cc1OC(F)F` [Example 309, 2-[5-(difluoromethoxy)-1-methyl-1H-pyrazol-3-yl]-4-[4-fluoro-2-(2,2,2-trifluoroethoxy)phenyl]-2,3-dihydro-1H-pyrrolo[3,4-c]pyridin-1-one], the inhibition at 10 µM was found to be 60%.

Consider `O=C1c2ccc(=O)n(-c3ccc(F)cc3OCC(F)(F)F)c2CN1c1ccc(OC(F)F)cn1` [Example 310, 6-[5-(difluoromethoxy)pyridin-2-yl]-1-[4-fluoro-2-(2,2,2-trifluoroethoxy)phenyl]-6,7-dihydro-1H-pyrrolo[3,4-b]pyridine-2,5-dione], for which the inhibition at 10 µM is 99%.
